The record followed here is patent US9776962B2, “Aromatic compounds with GPR40 agonistic activity” (TAKEDA PHARMACEUTICAL COMPANY LIMITED, priority 2013, dated 2017).

T1 sequence (O14842 whole entry): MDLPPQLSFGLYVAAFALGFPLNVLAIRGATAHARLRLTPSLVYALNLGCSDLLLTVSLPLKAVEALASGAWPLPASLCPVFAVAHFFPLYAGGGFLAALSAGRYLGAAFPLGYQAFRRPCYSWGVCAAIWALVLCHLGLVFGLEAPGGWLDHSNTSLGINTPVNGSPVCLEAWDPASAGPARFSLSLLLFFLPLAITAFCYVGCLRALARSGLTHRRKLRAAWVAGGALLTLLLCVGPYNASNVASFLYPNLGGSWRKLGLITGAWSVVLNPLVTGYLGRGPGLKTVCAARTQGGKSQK

This test concerns the target T1, human GPR40 (Homo sapiens, UniProt O14842).
T1 construct: expressed in transfected cells
Briefly: Evaluation of human GPR40 agonist activity with increase in intracellular Ca2+ concentration as an index (FLIPR). It counts as cell-based. The settings on record: test compound 1 μM; CHO(dhfr−) cells stably expressing human GPR40; 100% = 10 μM compound of Example 153, 0% = DMSO. Summed up: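 CHO(dhfr−) cells stably expressing full-length human GPR40 were loaded with Ca2+ probe for 1 h at room temperature, then given test compound at 1 μM final. Fluorescence was followed on FLIPR, with activity scaled to a reference agonist at 10 μM (100%) and DMSO (0%).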
Regarding `COc1ccc(C(=O)N(CC(F)(F)F)c2ccnc(C)n2)c(N2CCC(COc3cc(C(CC(=O)O)C4CC4)ccn3)CC2)c1` (stereo not drawn) [Example 239, 3-cyclopropyl-3-(2-((1-(5-methoxy-2-((2-methyl-pyrimidin-4-yl) (2,2,2-trifluoroethyl)carbamoyl)-phenyl)piperidin-4-yl)methoxy)pyridin-4-yl)propanoic acid], the activation at 1 µM was 100%.
The molecule `COc1ccc(C(=O)N(CC(F)(F)F)c2cc(C)ncn2)c(N2CCC(COc3cc(C(CC(=O)O)C4CC4)ccn3)CC2)c1` (stereo not drawn) [Example 240, 3-cyclopropyl-3-(2-((1-(5-methoxy-2-((6-methylpyrimidin-4-yl)-(2,2,2-trifluoroethyl)-carbamoyl)phenyl)-piperidin-4-yl)methoxy)-pyridin-4-yl)propanoic acid] yielded an activation at 1 µM of 99%.
As to `COc1ccc(C(=O)Nc2cccc(C)n2)c(N2CCC(COc3cc(C(CC(=O)O)C4CC4)ccn3)CC2)c1` (stereo not drawn) [Example 241, 3-cyclopropyl-3-(2-((1-(5-methoxy-2-((6-methylpyridin-2-yl)-carbamoyl)phenyl)-piperidin-4-yl)methoxy)pyridin-4-yl)propanoic acid], the activation at 1 µM was 95%.
The molecule `COc1ccc(C(=O)Nc2ccccn2)c(N2CCC(COc3cc(C(CC(=O)O)C4CC4)ccn3)CC2)c1` (stereo not drawn) [Example 242, 3-cyclopropyl-3-(2-((1-(5-methoxy-2-(pyridin-2-ylcarbamoyl)phenyl)piperidin-4-yl)methoxy)pyridin-4-yl)propanoic acid] displayed an activation at 1 µM of 93%.
In the case of `COc1ccc(C(=O)N(CC(C)(C)C)c2cc(C)cc(C)n2)c(N2CCC(COc3cc(C(CC(=O)O)C4CC4)ccn3)CC2)c1` (stereo not drawn) [Example 243, 3-cyclopropyl-3-(2-((1-(2-((2,2-dimethylpropyl)(4,6-dimethylpyridin-2-yl)carbamoyl)-5-methoxyphenyl)piperidin-4-yl)methoxy)pyridin-4-yl)propanoic acid] it was 101%.
The same measure for `COc1ccc(C(=O)N(CC2CC2)c2cc(C)cc(C)n2)c(N2CCC(COc3cc(C(CC(=O)O)C4CC4)ccn3)CC2)c1` (stereo not drawn) [Example 244, 3-cyclopropyl-3-(2-((1-(2-((cyclopropylmethyl)(4,6-dimethylpyridin-2-yl)carbamoyl)-5-methoxyphenyl)piperidin-4-yl)methoxy)pyridin-4-yl)propanoic acid]: 99%; for `COc1cc(N2CCC(COc3cc(C(CC(=O)O)C4CC4)ccn3)CC2)c(C(=O)N(CC(C)(C)C)c2cccc(C)n2)cc1F` (stereo not drawn) [Example 250, 3-cyclopropyl-3-(2-((1-(2-((2,2-dimethylpropyl)(6-methylpyridin-2-yl)carbamoyl)-4-fluoro-5-methoxyphenyl)piperidin-4-yl)methoxy)pyridin-4-yl)propanoic acid]: 91%.
The same measure for `COc1cc(F)c(C(=O)N(CC(C)(C)C)c2cccc(C)n2)c(N2CCC(COc3cc(C(CC(=O)O)C4CC4)ccn3)CC2)c1` (stereo not drawn) [Example 251, 3-cyclopropyl-3-(2-((1-(2-((2,2-dimethylpropyl)(6-methylpyridin-2-yl)carbamoyl)-3-fluoro-5-methoxyphenyl)piperidin-4-yl)methoxy)pyridin-4-yl)propanoic acid]: 91%; for `COc1ccc(C(=O)N(CC(C)(C)C)c2cccc(C)n2)c(N2CCC(COc3cc(C(CC(=O)O)C4CC4)ccn3)CC2)c1F` (stereo not drawn) [Example 252, 3-cyclopropyl-3-(2-((1-(6-((2,2-dimethylpropyl)(6-methylpyridin-2-yl)carbamoyl)-2-fluoro-3-methoxyphenyl)piperidin-4-yl)methoxy)pyridin-4-yl)propanoic acid]: 87%.
With `COc1c(F)cc(C(=O)N(CC(C)(C)C)c2cccc(C)n2)c(N2CCC(COc3cc(C(CC(=O)O)C4CC4)ccn3)CC2)c1F` (stereo not drawn) [Example 253, 3-cyclopropyl-3-(2-((1-(6-((2,2-dimethylpropyl)(6-methylpyridin-2-yl)carbamoyl)-2,4-difluoro-3-methoxyphenyl)piperidin-4-yl)methoxy)pyridin-4-yl)propanoic acid], the activation at 1 µM came to 74%.
In the case of `COc1ccc(C(=O)N(CC(C)(C)C)c2ccccn2)c(N2CCC(COc3cccc(C(CC(=O)O)C4CC4)c3)CC2)n1` (stereo not drawn) [Example 254, 3-cyclopropyl-3-(3-((1-(3-((2,2-dimethylpropyl)(pyridin-2-yl)carbamoyl)-6-methoxypyridin-2-yl)piperidin-4-yl)methoxy)phenyl)propanoic acid] it was 74%.
In turn, `COc1cc(N2CCC(COc3cc(C(CC(=O)O)C4CC4)ccn3)CC2)c(C(=O)N(CC(C)(C)C)c2cccc(C)n2)cn1` (stereo not drawn) [Example 255, 3-cyclopropyl-3-(2-((1-(5-((2,2-dimethylpropyl)(6-methylpyridin-2-yl)carbamoyl)-2-methoxypyridin-4-yl)piperidin-4-yl)methoxy)pyridin-4-yl)propanoic acid] returned an activation at 1 µM of 103%.
The same measure for `COc1cc(N2CCC(COc3cc(C(CC(=O)O)C4CC4)ccn3)CC2)c(C(=O)N(CC(F)(F)F)c2ccccn2)cn1` (stereo not drawn) [Example 256, 3-cyclopropyl-3-(2-((1-(2-methoxy-5-(pyridin-2-yl(2,2,2-trifluoroethyl)carbamoyl)pyridin-4-yl)piperidin-4-yl)methoxy)pyridin-4-yl)propanoic acid]: 96%; for `COc1cc(N2CCC(COc3cc(C(CC(=O)O)C4CC4)ccn3)CC2)c(C(=O)N(CC(C)(C)C)c2cc(C)ncn2)cn1` (stereo not drawn) [Example 257, 3-cyclopropyl-3-(2-((1-(5-((2,2-dimethylpropyl)(6-methylpyrimidin-4-yl)carbamoyl)-2-methoxypyridin-4-yl)piperidin-4-yl)methoxy)pyridin-4-yl)propanoic acid]: 98%.
The molecule `Cc1ccc(C(=O)N(CC(C)(C)C)c2cccc(C)n2)c(N2CCC(COc3cc(C(CC(=O)O)C4CC4)ccn3)CC2)c1` (stereo not drawn) [Example 258, 3-cyclopropyl-3-(2-((1-(2-((2,2-dimethylpropyl)(6-methylpyridin-2-yl)carbamoyl)-5-methylphenyl)piperidin-4-yl)methoxy)pyridin-4-yl)propanoic acid] returned an activation at 1 µM of 94%.
In the case of `Cc1cccc(N(CC(C)(C)C)C(=O)c2ccc(O)cc2N2CCC(COc3cc(C(CC(=O)O)C4CC4)ccn3)CC2)n1` (stereo not drawn) [Example 259, 3-cyclopropyl-3-(2-((1-(2-((2,2-dimethylpropyl)(6-methylpyridin-2-yl)carbamoyl)-5-hydroxyphenyl)piperidin-4-yl)methoxy)pyridin-4-yl)propanoic acid] it was 77%; in that of `Cc1cccc(N(CC(C)(C)C)C(=O)c2ccc(C#N)cc2N2CCC(COc3cc(C(CC(=O)O)C4CC4)ccn3)CC2)n1` (stereo not drawn) [Example 260, 3-(2-((1-(5-cyano-2-((2,2-dimethylpropyl)(6-methylpyridin-2-yl)carbamoyl)phenyl)piperidin-4-yl)methoxy)pyridin-4-yl)-3-cyclopropylpropanoic acid], 89%.
The molecule `Cc1cccc(N(CC(C)(C)C)C(=O)c2ccc(C(N)=O)cc2N2CCC(COc3cc(C(CC(=O)O)C4CC4)ccn3)CC2)n1` (stereo not drawn) [Example 261, 3-(2-((1-(5-carbamoyl-2-((2,2-dimethylpropyl)(6-methylpyridin-2-yl)carbamoyl)phenyl)piperidin-4-yl)methoxy)pyridin-4-yl)-3-cyclopropylpropanoic acid] gave an activation at 1 µM of 11%.
In the case of `CSc1ccc(C(=O)N(CC(C)(C)C)c2cccc(C)n2)c(N2CCC(COc3cc(C(CC(=O)O)C4CC4)ccn3)CC2)c1` (stereo not drawn) [Example 262, 3-cyclopropyl-3-(2-((1-(2-((2,2-dimethylpropyl)(6-methylpyridin-2-yl)carbamoyl)-5-(methylsulfanyl)phenyl)piperidin-4-yl)methoxy)pyridin-4-yl)propanoic acid] it was 90%; in that of `Cc1cccc(N(CC(C)(C)C)C(=O)c2ccc(Br)cc2N2CCC(COc3cc(C(CC(=O)O)C4CC4)ccn3)CC2)n1` (stereo not drawn) [Example 263, 3-(2-((1-(5-bromo-2-((2,2-dimethylpropyl)(6-methylpyridin-2-yl)carbamoyl)phenyl)piperidin-4-yl)methoxy)pyridin-4-yl)-3-cyclopropylpropanoic acid], 94%.
The same measure for `Cc1cccc(N(CC(C)(C)C)C(=O)c2ccc(S(C)(=O)=O)cc2N2CCC(COc3cc(C(CC(=O)O)C4CC4)ccn3)CC2)n1` (stereo not drawn) [Example 264, 3-cyclopropyl-3-(2-((1-(2-((2,2-dimethylpropyl)(6-methylpyridin-2-yl)carbamoyl)-5-(methylsulfonyl)phenyl)piperidin-4-yl)methoxy)pyridin-4-yl)propanoic acid]: 52%.
In the case of `Cc1cccc(N(CC(C)(C)C)C(=O)c2c(F)cc(Cl)cc2N2CCC(COc3cc(C(CC(=O)O)C4CC4)ccn3)CC2)n1` (stereo not drawn) [Example 265, 3-(2-((1-(5-chloro-2-((2,2-dimethylpropyl)(6-methylpyridin-2-yl)carbamoyl)-3-fluorophenyl)piperidin-4-yl)methoxy)pyridin-4-yl)-3-cyclopropylpropanoic acid] it was 85%; in that of `Cc1cccc(N(CC(C)(C)C)C(=O)c2ccc(Cl)cc2N2CCC(COc3cc(C(CC(=O)O)C4CC4)ccn3)CC2)n1` (stereo not drawn) [Example 266, 3-(2-((1-(5-chloro-2-((2,2-dimethylpropyl)(6-methylpyridin-2-yl)carbamoyl)phenyl)piperidin-4-yl)methoxy)pyridin-4-yl)-3-cyclopropylpropanoic acid], 94%; in that of `Cc1cccc(N(CC(C)(C)C)C(=O)c2ccc(OC(F)F)cc2N2CCC(COc3cc(C(CC(=O)O)C4CC4)ccn3)CC2)n1` (stereo not drawn) [Example 267, 3-cyclopropyl-3-(2-((1-(5-(difluoromethoxy)-2-((2,2-dimethylpropyl)(6-methylpyridin-2-yl)carbamoyl)phenyl)piperidin-4-yl)methoxy)pyridin-4-yl)propanoic acid], 96%.
